Measured values from patent EP1247803A2, “Indolinone compounds suitable for modulation of protein kinases” (Sugen, Inc., priority 1996, dated 1998).

Tests used:
[1] = target: T1, FLK-1 receptor (Mus musculus, UniProt P35918); experiment: FLK-1 ELISA (kinase activity of the FLK-1 receptor in FLK-1/NIH3T3 cells, VEGF stimulated); assay type: cell-based
T1 construct: expressed in transfected cells; host or cells: NIH3T3 C7#3
Summary of the method: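 An ELISA using affinity-purified rabbit anti-FLK-1 antiserum on anti-rabbit IgG-coated plates measured VEGF-stimulated FLK-1 kinase activity. NIH3T3 C7#3 cells carrying FLK-1 were serum-starved (0.1% FBS) overnight, then exposed to compound (final 1:200 dilution, 0.5% DMSO) for two hours at 37 °C.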

[2] = target: PDGF-R (Homo sapiens, UniProt P09619); experiment: PDGF-R ELISA; assay type: cell-based
Sequence of PDGF-R (P09619 33-1106, species assumed): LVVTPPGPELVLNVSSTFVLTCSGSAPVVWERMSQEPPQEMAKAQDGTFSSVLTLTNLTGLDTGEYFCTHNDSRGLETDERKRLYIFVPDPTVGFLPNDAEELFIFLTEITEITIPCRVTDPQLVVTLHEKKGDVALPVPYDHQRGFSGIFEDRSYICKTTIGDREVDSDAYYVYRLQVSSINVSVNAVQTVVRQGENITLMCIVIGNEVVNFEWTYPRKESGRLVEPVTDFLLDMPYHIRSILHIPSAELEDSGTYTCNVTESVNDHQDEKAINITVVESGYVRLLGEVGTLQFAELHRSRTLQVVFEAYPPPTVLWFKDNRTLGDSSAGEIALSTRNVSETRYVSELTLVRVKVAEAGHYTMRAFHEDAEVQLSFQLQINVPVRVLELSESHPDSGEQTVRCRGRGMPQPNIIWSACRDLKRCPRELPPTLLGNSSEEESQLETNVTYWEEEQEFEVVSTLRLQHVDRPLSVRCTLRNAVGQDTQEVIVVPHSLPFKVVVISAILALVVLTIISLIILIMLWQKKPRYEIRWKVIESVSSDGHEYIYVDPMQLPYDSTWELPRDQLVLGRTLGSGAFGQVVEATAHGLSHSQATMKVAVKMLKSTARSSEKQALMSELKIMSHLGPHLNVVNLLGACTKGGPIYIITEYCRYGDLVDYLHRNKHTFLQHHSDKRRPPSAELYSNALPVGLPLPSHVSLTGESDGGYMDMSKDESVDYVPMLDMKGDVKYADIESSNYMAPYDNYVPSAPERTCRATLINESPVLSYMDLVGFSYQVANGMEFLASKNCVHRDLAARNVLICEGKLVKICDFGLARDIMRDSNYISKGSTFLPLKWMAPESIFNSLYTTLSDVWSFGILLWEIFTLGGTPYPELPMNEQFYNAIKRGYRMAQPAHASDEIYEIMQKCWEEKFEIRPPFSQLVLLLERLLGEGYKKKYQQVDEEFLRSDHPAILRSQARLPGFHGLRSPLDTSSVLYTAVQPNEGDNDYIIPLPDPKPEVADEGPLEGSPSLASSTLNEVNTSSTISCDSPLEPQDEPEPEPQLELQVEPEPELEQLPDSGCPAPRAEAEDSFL
Text: A PDGF-R ELISA is described in International Patent Publication No. WO 96/40116, published December 19, 1996 by Tang et al.

T1 sequence (P35918 20-1345): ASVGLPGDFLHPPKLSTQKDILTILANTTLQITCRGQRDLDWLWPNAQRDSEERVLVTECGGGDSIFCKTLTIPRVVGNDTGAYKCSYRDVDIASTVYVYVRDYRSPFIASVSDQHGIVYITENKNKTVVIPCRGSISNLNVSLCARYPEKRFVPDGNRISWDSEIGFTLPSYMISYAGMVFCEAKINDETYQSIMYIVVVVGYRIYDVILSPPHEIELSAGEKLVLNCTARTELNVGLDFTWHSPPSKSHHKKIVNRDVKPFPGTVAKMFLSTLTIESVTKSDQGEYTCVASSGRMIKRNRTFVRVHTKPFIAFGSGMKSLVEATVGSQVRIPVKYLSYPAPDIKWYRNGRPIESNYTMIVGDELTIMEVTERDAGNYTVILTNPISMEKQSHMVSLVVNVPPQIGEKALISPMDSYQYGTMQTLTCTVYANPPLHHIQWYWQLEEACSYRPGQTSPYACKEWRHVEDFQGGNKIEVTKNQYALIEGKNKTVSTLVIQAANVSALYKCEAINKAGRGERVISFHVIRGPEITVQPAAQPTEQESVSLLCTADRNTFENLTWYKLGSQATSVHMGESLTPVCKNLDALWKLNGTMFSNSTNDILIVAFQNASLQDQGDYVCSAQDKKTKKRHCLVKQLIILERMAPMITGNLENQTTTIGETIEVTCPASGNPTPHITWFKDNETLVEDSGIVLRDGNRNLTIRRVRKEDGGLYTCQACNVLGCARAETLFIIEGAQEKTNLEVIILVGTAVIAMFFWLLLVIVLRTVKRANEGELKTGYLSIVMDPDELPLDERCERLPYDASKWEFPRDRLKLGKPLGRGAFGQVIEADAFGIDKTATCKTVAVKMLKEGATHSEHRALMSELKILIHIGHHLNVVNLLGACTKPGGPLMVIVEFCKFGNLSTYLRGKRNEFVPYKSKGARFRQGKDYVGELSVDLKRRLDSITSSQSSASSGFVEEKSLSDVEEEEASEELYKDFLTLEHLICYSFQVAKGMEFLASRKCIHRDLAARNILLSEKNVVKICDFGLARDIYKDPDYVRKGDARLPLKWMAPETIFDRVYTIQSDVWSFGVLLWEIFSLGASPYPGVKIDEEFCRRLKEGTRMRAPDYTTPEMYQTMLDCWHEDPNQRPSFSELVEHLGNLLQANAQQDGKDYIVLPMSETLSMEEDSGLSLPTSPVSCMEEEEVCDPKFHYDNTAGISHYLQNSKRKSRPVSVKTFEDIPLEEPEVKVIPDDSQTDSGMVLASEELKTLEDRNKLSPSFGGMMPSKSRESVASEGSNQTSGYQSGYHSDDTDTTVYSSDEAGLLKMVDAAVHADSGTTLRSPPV

SMILES: CCCCN(CCCC)c1ccc(C=C2C(=O)Nc3ccc(S(=O)(=O)NC)cc32)cc1 [10722/D10]
- Fik Kinase %Inhibition [1]: 8.2%
- PDGF Kinase %Inhibition [2]: 41.5%

SMILES: CNS(=O)(=O)c1ccc2c(c1)C(=Cc1ccc(C(F)(F)F)cc1)C(=O)N2 [10722/D11]
- Fik Kinase %Inhibition [1]: 9.6%
- PDGF Kinase %Inhibition [2]: 15.2%

SMILES: CC(C)(C)c1cc(C=C2C(=O)Nc3ccc(S(=O)(=O)Nc4ccc(C(F)(F)F)cc4)cc32)cc([N+](=O)[O-])c1O [10722/E02]
- Fik Kinase %Inhibition [1]: 17.0%
- PDGF Kinase %Inhibition [2]: 23.2%

SMILES: O=C1Nc2ccc(S(=O)(=O)Nc3ccc(C(F)(F)F)cc3)cc2C1=Cc1c(O)cc(O)cc1O [10722/E03]
- Fik Kinase %Inhibition [1]: 10.7%
- PDGF Kinase %Inhibition [2]: -7.2%

SMILES: O=C1Nc2ccc(S(=O)(=O)Nc3ccc(C(F)(F)F)cc3)cc2C1=Cc1ccc([N+](=O)[O-])s1 [10722/E04]
- Fik Kinase %Inhibition [1]: 38.6%
- PDGF Kinase %Inhibition [2]: 30.6%

SMILES: O=C1Nc2ccc(S(=O)(=O)Nc3ccc(C(F)(F)F)cc3)cc2C1=Cc1ccc(C(=O)O)cc1 [10722/E05]
- Fik Kinase %Inhibition [1]: 19.2%
- PDGF Kinase %Inhibition [2]: 19.2%

SMILES: O=C1Nc2ccc(S(=O)(=O)Nc3ccc(C(F)(F)F)cc3)cc2C1=Cc1ccc(F)cc1F [10722/E06]
- Fik Kinase %Inhibition [1]: 21.4%
- PDGF Kinase %Inhibition [2]: 32.9%

SMILES: Cc1cc(C=C2C(=O)Nc3ccc(S(=O)(=O)Nc4ccc(C(F)(F)F)cc4)cc32)cc(C)c1O [10722/E07]
- Fik Kinase %Inhibition [1]: 24.3%
- PDGF Kinase %Inhibition [2]: 40.9%

SMILES: CC(C)(C)c1cc(C=C2C(=O)Nc3ccc(S(=O)(=O)Nc4ccc(C(F)(F)F)cc4)cc32)cc(Cl)c1O [10722/E08]
- Fik Kinase %Inhibition [1]: 18.6%
- PDGF Kinase %Inhibition [2]: 38.7%

SMILES: O=C1Nc2ccc(S(=O)(=O)Nc3ccc(C(F)(F)F)cc3)cc2C1=Cc1csc([N+](=O)[O-])c1 [10722/E09]
- Fik Kinase %Inhibition [1]: 16.2%
- PDGF Kinase %Inhibition [2]: 26.6%

SMILES: CCCCN(CCCC)c1ccc(C=C2C(=O)Nc3ccc(S(=O)(=O)Nc4ccc(C(F)(F)F)cc4)cc32)cc1 [10722/E10]
- Fik Kinase %Inhibition [1]: 3.1%
- PDGF Kinase %Inhibition [2]: 31.8%

SMILES: O=C1Nc2ccc(S(=O)(=O)Nc3ccc(C(F)(F)F)cc3)cc2C1=Cc1ccc(C(F)(F)F)cc1 [10722/E11]
- Fik Kinase %Inhibition [1]: 15.3%
- PDGF Kinase %Inhibition [2]: 28.3%
